Literature values, collected in patent US12691128B2, “Methods of treating eosinophilic esophagitis and reducing candidiasis” (Ellodi Pharmaceuticals, L.P., priority 2019, dated 2026).
Read-outs that look alike come from different tables or passages of the source.

What was measured:
glucocorticoid receptor = molecular target: T1, glucocorticoid receptor (Homo sapiens, UniProt P04150); design: reference not given here
T1 sequence (P04150 1-777): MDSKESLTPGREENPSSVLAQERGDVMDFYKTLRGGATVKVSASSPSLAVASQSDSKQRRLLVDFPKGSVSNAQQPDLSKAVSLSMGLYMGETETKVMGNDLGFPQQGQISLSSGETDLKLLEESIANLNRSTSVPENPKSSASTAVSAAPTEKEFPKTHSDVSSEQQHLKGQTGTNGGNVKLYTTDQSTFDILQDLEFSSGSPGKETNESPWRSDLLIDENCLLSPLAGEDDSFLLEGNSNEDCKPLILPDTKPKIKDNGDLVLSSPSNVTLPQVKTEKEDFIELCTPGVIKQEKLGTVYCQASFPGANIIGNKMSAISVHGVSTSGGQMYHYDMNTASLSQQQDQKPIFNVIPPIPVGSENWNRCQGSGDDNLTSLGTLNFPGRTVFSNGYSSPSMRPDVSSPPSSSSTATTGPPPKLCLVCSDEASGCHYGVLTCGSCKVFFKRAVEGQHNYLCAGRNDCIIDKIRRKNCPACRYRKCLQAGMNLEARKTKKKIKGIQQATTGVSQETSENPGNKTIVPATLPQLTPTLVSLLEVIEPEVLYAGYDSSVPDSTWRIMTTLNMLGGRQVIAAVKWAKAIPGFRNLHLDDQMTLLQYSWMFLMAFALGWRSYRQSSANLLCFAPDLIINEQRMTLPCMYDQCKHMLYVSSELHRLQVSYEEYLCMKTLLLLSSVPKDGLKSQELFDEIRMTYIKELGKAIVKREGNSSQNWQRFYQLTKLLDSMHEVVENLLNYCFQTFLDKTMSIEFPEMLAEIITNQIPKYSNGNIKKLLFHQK

[1] = molecular target: cytochrome (CYP) isoenzyme 2C9 (Homo sapiens, UniProt P11712)
cytochrome (CYP) isoenzyme 2C9, sequence (P11712 whole entry): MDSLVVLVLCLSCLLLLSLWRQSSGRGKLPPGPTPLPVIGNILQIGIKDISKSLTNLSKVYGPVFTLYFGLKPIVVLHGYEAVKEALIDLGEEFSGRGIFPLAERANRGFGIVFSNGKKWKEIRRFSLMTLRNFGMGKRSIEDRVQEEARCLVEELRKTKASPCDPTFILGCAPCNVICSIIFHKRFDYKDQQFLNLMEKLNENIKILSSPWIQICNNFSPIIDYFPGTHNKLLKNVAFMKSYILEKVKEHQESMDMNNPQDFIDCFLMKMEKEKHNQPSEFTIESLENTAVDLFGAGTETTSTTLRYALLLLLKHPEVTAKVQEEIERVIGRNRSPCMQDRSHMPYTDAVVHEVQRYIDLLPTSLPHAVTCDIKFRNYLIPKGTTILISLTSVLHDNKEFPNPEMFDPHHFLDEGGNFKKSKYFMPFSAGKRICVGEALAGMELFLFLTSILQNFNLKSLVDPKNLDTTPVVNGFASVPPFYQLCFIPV

CYP3A4 = CYP3A4 (Homo sapiens, UniProt P08684)
CYP3A4, sequence (P08684 whole entry): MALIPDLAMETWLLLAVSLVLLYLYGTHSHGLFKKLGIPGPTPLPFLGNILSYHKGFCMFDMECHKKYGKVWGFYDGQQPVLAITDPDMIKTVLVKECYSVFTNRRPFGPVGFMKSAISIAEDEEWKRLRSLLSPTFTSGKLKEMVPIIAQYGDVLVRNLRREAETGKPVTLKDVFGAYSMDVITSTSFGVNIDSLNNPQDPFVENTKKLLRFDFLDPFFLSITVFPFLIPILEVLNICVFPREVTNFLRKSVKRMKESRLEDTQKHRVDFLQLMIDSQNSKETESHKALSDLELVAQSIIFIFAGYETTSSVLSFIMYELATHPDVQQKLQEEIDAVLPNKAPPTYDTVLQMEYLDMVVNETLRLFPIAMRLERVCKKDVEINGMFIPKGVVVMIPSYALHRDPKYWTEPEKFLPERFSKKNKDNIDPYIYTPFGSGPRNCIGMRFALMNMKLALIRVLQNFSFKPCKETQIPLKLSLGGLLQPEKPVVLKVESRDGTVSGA

[2] = reported

C[C@]12C=CC(=O)C=C1CC[C@@H]1[C@@H]2[C@@H](O)C[C@@]2(C)[C@H]1C[C@H]1O[C@@H](C3CCCCC3)O[C@]12C(=O)CO [des-CIC]
Relative Glucocorticoid Receptor Binding Affinity (glucocorticoid receptor): 12 (1200)

OC(Cn1cncn1)(Cn1cncn1)c1ccc(F)cc1F [fluconazole]
Inhibition of cytochrome (CYP) isoenzyme 2C9 [1]: potent inhibitor
Inhibition of CYP3A4 (CYP3A4): moderate inhibitor

C[C@]12C=CC(=O)C=C1CC[C@@H]1[C@@H]2[C@@H](O)C[C@@]2(C)[C@H]1CC[C@]2(O)C(=O)CO [Prednisolone]
Relative Glucocorticoid Receptor Binding Affinity (glucocorticoid receptor): 12

CC1(C)O[C@@H]2C[C@H]3[C@@H]4C[C@H](F)C5=CC(=O)C=C[C@]5(C)[C@H]4[C@@H](O)C[C@]3(C)[C@]2(C(=O)CO)O1 [Flunisolide]
Relative Glucocorticoid Receptor Binding Affinity (glucocorticoid receptor): 190

CCC(=O)O[C@]1(C(=O)SCF)[C@H](C)C[C@H]2[C@@H]3C[C@H](F)C4=CC(=O)C=C[C@]4(C)[C@@]3(F)[C@@H](O)C[C@@]21C [Fluticasone propionate, S-(fluoromethyl)-6α,9-difluoro-11β, 17-dihydroxy-16α-methyl-3-oxoandrosta-1,4-diene-17β-carbothioate, 17-propanoate]
Solubility (acetone, dichloromethane, ethyl acetate and chloroform): sparingly soluble
Solubility (dimethyl sulfoxide and dimethylformamide): freely soluble
Solubility (methanol and 95% ethanol): slightly soluble
Solubility (water): practically insoluble
Oral bioavailability [2]: less than 1%
Relative Glucocorticoid Receptor Binding Affinity (glucocorticoid receptor): 1775

CC1(C)O[C@@H]2C[C@H]3[C@@H]4CCC5=CC(=O)C=C[C@]5(C)[C@@]4(F)[C@@H](O)C[C@]3(C)[C@]2(C(=O)CO)O1 [Triamicinolone acetonide]
Relative Glucocorticoid Receptor Binding Affinity (glucocorticoid receptor): 233
